The values below come from US11939303B2, “Sulfamate derivatives of 4-(1-phenyl-1H-[1,2,3]triazol-4-yl)-phenol, derivatives of 4-(1-phenyl-1H-[1,2,3]triazol-4-yl)-phenol, their medical use and the method of obtaining 4-(1-phenyl-1H-[1,2,3]triazol-4-yl)-phenyl sulfamate derivatives” (POLITECHNIKA GDANSKA, priority 2018, dated 2024).

The target of this experiment is T1, STS steroid sulfatase enzyme isolated from a human placenta (Homo sapiens, UniProt P08842).
T1 construct: human placenta was stripped from membranes and homogenized in ice-cold Tris-HCl buffer pH 7.4; from tissue; host or cells: human placenta
T1 sequence (P08842 22-583): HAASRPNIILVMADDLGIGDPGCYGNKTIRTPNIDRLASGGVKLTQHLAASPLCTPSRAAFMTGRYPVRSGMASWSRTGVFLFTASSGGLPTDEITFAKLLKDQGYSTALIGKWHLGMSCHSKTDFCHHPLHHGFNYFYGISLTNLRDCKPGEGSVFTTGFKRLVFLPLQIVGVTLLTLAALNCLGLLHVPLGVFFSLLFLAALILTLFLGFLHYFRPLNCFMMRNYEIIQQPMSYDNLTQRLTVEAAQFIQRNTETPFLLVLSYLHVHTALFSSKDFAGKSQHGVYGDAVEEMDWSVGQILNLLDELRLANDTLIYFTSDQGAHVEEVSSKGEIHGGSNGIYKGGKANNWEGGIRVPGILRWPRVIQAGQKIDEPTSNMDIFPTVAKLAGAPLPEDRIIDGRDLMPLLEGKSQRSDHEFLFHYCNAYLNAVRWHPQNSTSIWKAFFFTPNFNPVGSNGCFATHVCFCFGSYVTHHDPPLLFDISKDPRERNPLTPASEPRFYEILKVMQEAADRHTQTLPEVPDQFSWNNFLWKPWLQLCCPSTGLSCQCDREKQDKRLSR
As to the kind of experiment: STS steroid sulfatase enzymatic assay with nitrophenyl sulfate (NPS). The note with it: NPS substrate, pH 7.25, 60 minutes, p-nitrophenol at 405 nm, read-out: IC50 (ability to inhibit steroid sulfatase activity). In kind it is biochemical. On the procedure: The medical and biological activity of the compounds defined the general formula 1, for use as active compounds—medicament—drugs and/or as STS steroid sulfatase inhibitors, diagnostic agent and biological use were evaluated using the STS steroid sulfatase enzyme isolated from a human placenta according to the following procedure: • human placenta was stripped from membranes and homogenized in ice-cold Tris-HCl buffer pH 7.4 containing 0.1% Triton X-100 and 0.02% NaN3. • the homogenate was alternately frozen and thawed a few times and then centrifuged at 100000 g for 60 min, • the supernatant was removed and the same procedure from homogenization to centrifugation was carried out 5 times, • finally, the enzyme was purified by three-step chromatography using columns: DEAE-cellulose, Con A-Sepharose and Bio-Gel A-1.5 and appropriate buffers. All steps were carried out at 4° C. The biological, diagnostics and medical activity of STS inhibitors, for the compounds defined by the general formula 1, were evaluated by analyzing the progress of the enzymatic reaction using nitrophenyl sulfate (NPS). The final volume of the reaction mixture was 120 μL (pH=7.25) and contained 0.8 μmol NPS, 40 μmol Tris HCl and the appropriate amount of enzyme. After 60 minutes of reaction time, 0.5 mL of 1M NaOH was added to the reaction mixture. Released p nitrophenol was determined using a spectrophotometer at 405 nm. In the final step, the IC50 parameter values (characterizing the ability of obtained compounds to inhibit steroid sulfatase activity) were determined. […] Therefore, the compounds of the general formula 1 have biological, medical and diagnostic activity, and have medical applications for use as a medicament a well as in diagnostics for use as a diagnostic agent. It has been confirmed that the new compounds with general formula 1, as one of the possible mechanisms of medical and biological action, show a strong STS inhibitory activity at low micromolar or nanomolar concentrations, which is sufficient for the compounds to act as drugs classified as steroid sulfatase inhibitors or as compounds for use as steroid sulfatase inhibitors in diagnostic tests, in vitro clinical trials and its use in biological sciences. In particular, the compounds of the general formula 1 are for use as medicaments—useful as drugs in cancer therapy and in particular in the therapy of hormone-dependent cancers of animals, in particular mammals, including humans.
Usually IC50 stands for the concentration needed to halve the response being measured. Turning to `NS(=O)(=O)Oc1ccc(-c2cn(-c3cc(C(F)(F)F)cc(C(F)(F)F)c3)nn2)cc1` [4-[1-(3,5-Bis-trifluoromethyl-phenyl)-1H-[1,2,3]triazol-4-yl]-phenyl sulfamate], the IC50 amounted to 0.821 µM.

`NS(=O)(=O)Oc1ccc(-c2cn(-c3cc(F)cc(F)c3)nn2)cc1` [4-[1-(3,5-difluoro-phenyl)-1H-[1,2,3]-triazol-4-yl]-phenyl sulfamate]: the IC50 was found to be 0.036 µM. Under `NS(=O)(=O)Oc1ccc(-c2cn(-c3cccc(C(F)(F)F)c3)nn2)cc1` [4-[1-(3-trifluoromethyl-phenyl)-1H-[1,2,3]-triazol-4-yl]-phenyl sulfamate] stands 0.18 µM; under `NS(=O)(=O)Oc1ccc(-c2cn(-c3ccc(OC(F)(F)F)cc3)nn2)cc1` [4-[1-(4-trifluoromethoxy-phenyl)-1H-[1,2,3]-triazol-4-yl]-phenyl sulfamate], 0.24 µM.
